Consider 25 compounds from patent US20230203043A1, “NOVEL IMIDAZOPYRAZINE DERIVATIVES” (Hoffmann-La Roche Inc., priority 2020, published 2023).

Where a name gives a salt, the structure may show the parent alone.

The subject of one assay is Acinetobacter baumannii ATCC17961. Put plainly: Antimicrobial susceptibility testing: 90% growth inhibitory concentration (IC90) determination in Iso-Sensitest broth, OD600 growth. The note with it: Acinetobacter baumannii, ATCC17961, 16 h, read-out: A. baumannii ATCC 17961 IC90 (uM), strain ATCC 17961, OD600 growth over 16 h. The class given is cell-based. Put shortly:
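Each strain, at about 5×10^(5) CFU/ml, was incubated with twofold dilutions of compound at 35±2° C for 16 h, and IC90 was calculated from kinetic optical density measured at 600 nm during logarithmic growth.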
Broadly, the IC90 is the point of the concentration-response curve where the effect stands at 90%. Take `Cc1cc(Nc2nccn3c(-c4c[nH]nc4C(F)(F)F)cnc23)ccc1C(=O)N1CCN(C(=O)[C@H]2CCNC[C@@H]2O)CC1` [Example 465, formic acid; [4-[(3R,4S)-3-hydroxypiperidine-4-carbonyl]piperazin-1-yl]-[2-methyl-4-[[3-[3-(trifluoromethyl)-1H-pyrazol-4-yl]imidazo[1,2-a]pyrazin-8-yl]amino]phenyl]methanone]: the IC90 is 1.62 µM. For `CCc1cc(Nc2nccn3c(-c4cn(CC(F)F)nc4C(F)(F)F)cnc23)ccc1C(=O)NCC(=O)NCC1CNC1` [Example 547, N-[2-(azetidin-3-ylmethylamino)-2-oxo-ethyl]-4-[[3-[1-(2,2-difluoroethyl)-3-(trifluoromethyl)pyrazol-4-yl]imidazo[1,2-a]pyrazin-8-yl]amino]-2-ethyl-benzamide formate], the IC90 is 0.298 µM. The same measure, in the same setting: then `CCc1cc(Nc2nccn3c(-c4c[nH]nc4C(F)(F)F)cnc23)ccc1C(=O)NCCCNC(=O)NCCN` [Example 193, N-[3-(2-aminoethylcarbamoylamino)propyl]-2-ethyl-4-[[3-[3-(trifluoromethyl)-1H-pyrazol-4-yl]imidazo[1,2-a]pyrazin-8-yl]amino]benzamide formate], with 0.244 µM; and `Cc1ccnc(Cn2cc(-c3cnc4c(Nc5ccc(C(=O)N6CCNCC6)c(Cl)c5)nccn34)c(C(F)(F)F)n2)n1` [Example 161, [2-chloro-4-[[3-[1-[(4-methylpyrimidin-2-yl)methyl]-3-(trifluoromethyl)pyrazol-4-yl]imidazo[1,2-a]pyrazin-8-yl]amino]phenyl]-piperazin-1-ylmethanone formate], with 0.764 µM.

For the compound `CCc1cc(Nc2nccn3c(-c4c[nH]nc4C(F)(F)F)cnc23)ccc1C(=O)NCCNC(=O)[C@@H]1C[C@@H](O)CN1` [Example 432, (2S,4R)-N-[2-[[2-ethyl-4-[[3-[3-(trifluoromethyl)-1H-pyrazol-4-yl]imidazo[1,2-a]pyrazin-8-yl]amino]benzoyl]amino]ethyl]-4-hydroxypyrrolidine-2-carboxamide formate], the 90% effect concentration (IC90) was 0.751 µM. Still for that read-out and setting: then `Cc1cc(Nc2nccn3c(-c4cn(CC#N)nc4C(F)(F)F)cnc23)cc(F)c1C(=O)N[C@H](C)CNC(=O)[C@H](C)N` [Example 722, N-((R)-1-((S)-2-aminopropanamido)propan-2-yl)-4-((3-(1-(cyanomethyl)-3-(trifluoromethyl)-1H-pyrazol-4-yl)imidazo[1,2-a]pyrazin-8-yl)amino)-2-fluoro-6-methylbenzamide formate], with 0.458 µM; and `CCc1cc(Nc2nccn3c(-c4cn(CC)nc4C(F)(F)F)cnc23)ccc1C(=O)NCCOCCN` [Example 31, N-[2-(2-aminoethoxy)ethyl]-2-ethyl-4-[[3-[1-ethyl-3-(trifluoromethyl)pyrazol-4-yl]imidazo[1,2-a]pyrazin-8-yl]amino]benzamide formate], with 0.175 µM; and `NCCNC(=O)CN1CCN(C(=O)c2ccc(Nc3nccn4c(-c5cn(CC(F)F)nc5C(F)(F)F)cnc34)cc2Cl)CC1` [Example 598, N-(2-aminoethyl)-2-(4-(2-chloro-4-((3-(1-(2,2-difluoroethyl)-3-(trifluoromethyl)-1H-pyrazol-4-yl)imidazo[1,2-a]pyrazin-8-yl)amino)benzoyl)piperazin-1-yl)acetamide formate], with 0.359 µM. With `CCc1cc(Nc2nccn3c(-c4cn(CC(F)F)nc4C(F)(F)F)cnc23)ccc1C(=O)NCC1CNC1` [Example 557, N-(azetidin-3-ylmethyl)-4-((3-(1-(2,2-difluoroethyl)-3-(trifluoromethyl)-1H-pyrazol-4-yl)imidazo[1,2-a]pyrazin-8-yl)amino)-2-ethylbenzamide formate], the 90% effect concentration (IC90) came to 0.144 µM.

The same assay, now with this note: Acinetobacter baumannii, ATCC17961, 16 h, strain ATCC 17961, OD600 growth over 16 h, read-out: A. baumannii ATCC 17961 IC90.
Take `Cc1cc(Nc2nccn3c(-c4cn(CC#N)nc4C(F)(F)F)cnc23)cc(F)c1C(=O)N[C@H](C)CNC(=O)[C@@H]1C[C@@H](O)CN1` [Example 769, (2S,4R)-N-((R)-2-(4-(3-(1-(cyanomethyl)-3-(trifluoromethyl)-1H-pyrazol-4-yl)imidazo[1,2-a]pyrazin-8-yl)amino)-2-fluoro-6-methylbenzamido)propyl)-4-hydroxypyrrolidine-2-carboxamide formate]: the IC90 is 0.928 µM.

As to `O=C(CNCCNC(=O)c1ccc(Nc2nccn3c(-c4cn(CC(F)F)nc4C(F)(F)F)cnc23)cc1Cl)NC1CNC1` [Example 821, N-(2-((2-(azetidin-3-ylamino)-2-oxoethyl)amino)ethyl)-2-chloro-4-(3-(1-(2,2-difluoroethyl)-3-(trifluoromethyl)-1H-pyrazol-4-yl)imidazo[1,2-a]pyrazin-8-yl)amino) benzamide formate], the concentration for an effect of 90% (IC90) amounted to 0.16 µM. Same read-out and setting: then `CCc1cc(Nc2nccn3c(-c4cn(C(F)F)nc4C(F)(F)F)cnc23)ccc1C(=O)NCCNC(=O)[C@@H]1CCCN1` [Example 36, (2S)-N-[2-[[4-[[3-[1-(difluoromethyl)-3-(trifluoromethyl)pyrazol-4-yl]imidazo[1,2-a]pyrazin-8-yl]amino]-2-ethylbenzoyl)amino]ethyl] pyrrolidine-2-carboxamide], with 0.348 µM. Same read-out and setting: in the case of `Cc1cc(Nc2nccn3c(-c4c[nH]nc4C(F)(F)F)cnc23)cc(F)c1C(=O)NCCCCCN` [Example 81, N-(5-aminopentyl)-2-fluoro-6-methyl-4-[[3-[3-(trifluoromethyl)-1H-pyrazol-4-yl]imidazo[1,2-a]pyrazin-8-yl]amino]benzamide] it was 1.06 µM.

On to `NCCCC(=O)NCCNC(=O)c1ccc(Nc2nccn3c(-c4c[nH]nc4C(F)(F)F)cnc23)cc1Cl` [Example 300, N-[2-(4-aminobutanoylamino)ethyl]-2-chloro-4-[[3-[3-(trifluoromethyl)-1H-pyrazol-4-yl]imidazo[1,2-a]pyrazin-8-yl]amino]benzamide], for which the IC90 came to 0.905 µM. For the compound `O=C(NCC(=O)N1CCNCC1)c1ccc(Nc2nccn3c(-c4c[nH]nc4C(F)(F)F)cnc23)cc1Cl` [Example 162, 2-chloro-N-(2-oxo-2-piperazin-1-ylethyl)-4-[[3-[3-(trifluoromethyl)-1H-pyrazol-4-yl]imidazo[1,2-a]pyrazin-8-yl]amino]benzamide], the 90% effect concentration (IC90) came to 1.22 µM. On the same count and under the same terms, then `CCc1cc(Nc2nccn3c(-c4cn(CC(F)F)nc4C(F)(F)F)cnc23)ccc1C(=O)NCCNC(=O)[C@@H]1CCCN1` [Example 35, (2S)-N-[2-[[4-[[3-[1-(2,2-difluoroethyl)-3-(trifluoromethyl)pyrazol-4-yl]imidazo[1,2-a]pyrazin-8-yl]amino]-2-ethylbenzoyl)amino]ethyl]pyrrolidine-2-carboxamide], with 0.185 µM; and `O=C(c1ccc(N(c2nccn3c(-c4c[nH]nc4C(F)(F)F)cnc23)C(F)F)cc1Cl)N1CCNCC1` [Example 9, [2-chloro-4-[difluoromethyl-[3-[3-(trifluoromethyl)-1H-pyrazol-4-yl]imidazo[1,2-a]pyrazin-8-yl]amino]phenyl]-piperazin-1-ylmethanone], with 1.05 µM. The same measure, in the same setting: in the case of `CCc1cc(Nc2nccn3c(-c4cn(CC(F)F)nc4C(F)(F)F)cnc23)ccc1C(=O)NCCNC(=O)[C@@H]1CC[C@@H](N)C1` [Example 490, N-(2-((1R,3R)-3-aminocyclopentane-1-carboxamido)ethyl)-4-((3-(1-(2,2-difluoroethyl)-3-(trifluoromethyl)-1H-pyrazol-4-yl)imidazo[1,2-a]pyrazin-8-yl)amino)-2-ethylbenzamide formate] it was 0.196 µM; in that of `C#CCn1cc(-c2cnc3c(Nc4ccc(C(=O)NC)c(CC)c4)nccn23)c(C(F)(F)F)n1` [Example 335, 2-ethyl-N-methyl-4-[[3-[1-prop-2-ynyl-3-(trifluoromethyl)pyrazol-4-yl]imidazo[1,2-a]pyrazin-8-yl]amino]benzamide], 0.148 µM; in that of `C#CCn1cc(-c2cnc3c(Nc4ccc(C(=O)NCCOC[C@@H](C)N)c(CC)c4)nccn23)c(C(F)(F)F)n1` [Example 149, N-[2-[(2R)-2-aminopropoxy]ethyl]-2-ethyl-4-[[3-[1-prop-2-ynyl-3-(trifluoromethyl)pyrazol-4-yl]imidazo[1,2-a]pyrazin-8-yl]amino]benzamide], 0.102 µM.

With `CCc1cc(Nc2nccn3c(-c4cn(CCF)nc4C(F)F)cnc23)ccc1C(=O)N1CCN(C(=O)[C@@H](C)N)CC1` [Example 796, (R)-2-amino-1-(4-(4-((3-(3-(difluoromethyl)-1-(2-fluoroethyl)-1H-pyrazol-4-yl)imidazo[1,2-a]pyrazin-8-yl)amino)-2-ethylbenzoyl)piperazin-1-yl)propan-1-one], the concentration for an effect of 90% (IC90) came to 2.25 µM.

As to `Cc1cc(Nc2nccn3c(-c4cn(CCF)nc4C(F)(F)F)cnc23)cc(F)c1C(=O)N[C@H](C)CN` [Example 735, (R)-N-(1-aminopropan-2-yl)-2-fluoro-4-((3-(1-(2-fluoroethyl)-3-(trifluoromethyl)-1H-pyrazol-4-yl)imidazo[1,2-a]pyrazin-8-yl)amino)-6-methylbenzamide], the IC90 came out at 0.49 µM. `N[C@H]1CCN(C(=O)c2ccc(Nc3nccn4c(-c5c[nH]nc5C(F)(F)F)cnc34)cc2Cl)C1` [Example 320, [(3S)-3-aminopyrrolidin-1-yl]-[2-chloro-4-[[3-[3-(trifluoromethyl)-1H-pyrazol-4-yl]imidazo[1,2-a]pyrazin-8-yl]amino]phenyl]methanone]: the IC90 is 0.705 µM.

The same assay, now with this note: strain ATCC 17961, OD600 growth over 16 h, read-out: A. baumannii ATCC 17961 IC90.
For `NC1CN(C(=O)c2ccc(Nc3nccn4c(-c5c[nH]nc5C(F)(F)F)cnc34)cc2Cl)C1` [Example 167], the 90% effect concentration (IC90) came out at 0.485 µM. Still for that read-out and setting: in the case of `C#CCNCCCNC(=O)c1c(C)cc(Nc2nccn3c(-c4cn(CC=C)nc4C(F)(F)F)cnc23)cc1F` [Example 66, 2-fluoro-6-methyl-4-[[3-[1-prop-2-enyl-3-(trifluoromethyl)pyrazol-4-yl]imidazo[1,2-a]pyrazin-8-yl]amino]-N-[3-(prop-2-ynylamino)propyl] benzamide] it was 0.379 µM.
